Activity and inhibition data for 1 compound are collected here from ChEMBL document CHEMBL4804283, “Stk19 inhibitors for treatment of cancer” (2020).

Calls of active or inactive are those of the source. No cut-off for these calls is given here.

Series [1] relates to A-375. Kind of series: Growth inhibition of human A375 cells expressing wild-type NRAS and BRAF V600E mutant at 1-3 uM relative to control. In kind it is functional, cell-based.
Series [2] deals with T1, Inactive serine/threonine-protein kinase 19 (Homo sapiens) (UniProt P49842).
T1 sequence (whole entry): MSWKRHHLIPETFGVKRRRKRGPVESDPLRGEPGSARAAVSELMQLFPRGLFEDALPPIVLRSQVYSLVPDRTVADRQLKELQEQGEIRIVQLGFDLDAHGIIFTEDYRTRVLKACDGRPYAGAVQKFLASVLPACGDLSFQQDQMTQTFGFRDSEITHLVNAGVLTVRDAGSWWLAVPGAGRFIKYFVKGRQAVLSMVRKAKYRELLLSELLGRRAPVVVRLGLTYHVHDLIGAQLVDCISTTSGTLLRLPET
Kind of series: Inhibition of STK19 in human WM2032 cells expressing NRAS Q61R and wild-type BRAF at 300 nM assessed as H3K9 methylation relative to control. In kind it is cell-based.

A short description of series [3]: Toxicity in C57BL/6J mouse assessed as effect on phosphorous level at 25 mg/kg, administered twice daily for 20 days. Conditions: in vivo, 480 h. In kind it is organism-based.
For series [4], the target named is T1, Inactive serine/threonine-protein kinase 19 (Homo sapiens). Kind of series: Inhibition of STK19 in human WM2032 cells expressing NRAS Q61R and wild-type BRAF at 100 nM assessed as NRAS phosphorylation relative to control. In kind it is cell-based.
For series [5] the target is unchanged. Kind of series: Inhibition of STK19 in human UACC62 cells expressing wild-type NRAS and BRAF V600E mutant at 1-3 uM assessed as MEK-ERK signaling relative to control. In kind it is cell-based. Conditions: UACC-62.
Series [6] has the same target. Kind of series: Inhibition of wild-type STK19 in human primary melanocytes at 0.1-3 uM relative to control. In kind it is cell-based.
Series [7] concerns A-375. Kind of series: Induction of apoptosis in human A375 cells expressing wild-type NRAS and BRAF V600E mutant at 1-3 uM relative to control. In kind it is functional, cell-based.
Series [8] has as its system SK-MEL-2. Kind of series: Growth inhibition of human SK-MEL-2 cells expressing NRAS Q61R and wild-type BRAF at 1-3 uM relative to control. In kind it is functional, cell-based.
The subject of series [9] is T2, Inactive serine/threonine-protein kinase 19 (Homo sapiens), P49842 [D89N].
T2 sequence (whole entry): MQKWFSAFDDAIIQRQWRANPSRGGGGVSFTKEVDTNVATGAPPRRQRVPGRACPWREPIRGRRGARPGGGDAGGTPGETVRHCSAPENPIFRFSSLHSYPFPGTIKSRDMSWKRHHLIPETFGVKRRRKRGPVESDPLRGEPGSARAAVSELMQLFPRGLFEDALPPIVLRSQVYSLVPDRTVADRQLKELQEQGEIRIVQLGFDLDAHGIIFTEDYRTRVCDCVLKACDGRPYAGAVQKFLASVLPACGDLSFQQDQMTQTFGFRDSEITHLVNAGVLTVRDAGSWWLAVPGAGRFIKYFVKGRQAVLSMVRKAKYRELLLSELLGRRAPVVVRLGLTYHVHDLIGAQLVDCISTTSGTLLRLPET
Kind of series: Inhibition of STK19 in STK19-depleted human primary melanocytes expressing STK19 D89N mutant at 1-3 uM assessed as NRAS phosphorylation relative to control. In kind it is tissue-based. Conditions: Melanocyte.

In series [10] the target is T1, Inactive serine/threonine-protein kinase 19 (Homo sapiens). Kind of series: Inhibition of STK19 in human WM2032 cells expressing NRAS Q61R and wild-type BRAF at 1-3 uM assessed as MEK-ERK signaling relative to control. In kind it is cell-based.
The nature of series [11]: Toxicity in C57BL/6J mouse assessed as effect on albumin level at 25 mg/kg, administered twice daily for 20 days. In kind it is organism-based. Conditions: in vivo, 480 h.
The subject of series [12] is SK-MEL-2. Kind of series: Antitumor activity against human SK-MEL-2 cells xenografted in nude mouse assessed as inhibition of cancer cell proliferation at 50 mg/kg, administered for 21 days. In kind it is functional, organism-based. (In xenograft studies the graft and the host belong to different species.)
For series [13], the system named is hTERT. Kind of series: Antitumor activity against hTERT/p53DD/CDK4 (R24C) immortal melanocytes expressing STK19 D89N mutant xenografted in nude mouse assessed as reduction in tumor formation. The following applies: Homo sapiens. In kind it is functional.
The subject of series [14] is hTERT. Kind of series: Antitumor activity against hTERT/p53DD/CDK4 (R24C) immortal melanocytes expressing wild-type STK19 xenografted in nude mouse assessed as reduction in tumor formation. In kind it is functional. The following applies: Homo sapiens.
The nature of series [15]: Toxicity in C57BL/6J mouse assessed as effect on animal body weight at 25 mg/kg, administered twice daily for 20 days. In kind it is organism-based. Conditions: in vivo, 480 h.
In series [16] the test system is WM2032. Kind of series: Growth inhibition of human WM2032 cells expressing NRAS Q61R and wild-type BRAF at 1-3 uM relative to control. In kind it is functional, cell-based.
Series [17] can be described thus: Toxicity in C57BL/6J mouse assessed as spleen histology at 25 mg/kg, administered twice daily for 20 days by H and E staining method. In kind it is organism-based. Conditions: in vivo, 480 h.
The nature of series [18]: Toxicity in C57BL/6J mouse assessed as effect on creatinine level at 25 mg/kg, administered twice daily for 20 days. In kind it is organism-based. The following applies: in vivo, 480 h.
Series [19] relates to WM2032. Kind of series: Induction of apoptosis in human WM2032 cells expressing NRAS Q61R and wild-type BRAF at 1-3 uM relative to control. In kind it is functional, cell-based.
Series [20] deals with T1, Inactive serine/threonine-protein kinase 19 (Homo sapiens). Kind of series: Inhibition of STK19 in human SK-MEL-2 cells expressing NRAS Q61R and wild-type BRAF at 1-3 uM assessed as MEK-ERK signaling relative to control. In kind it is cell-based.
The target is the same in series [21]. Kind of series: Inhibition of STK19 in human SK-MEL-2 cells expressing NRAS Q61R and wild-type BRAF at 300 nM assessed as NRAS phosphorylation relative to control. In kind it is cell-based.
Series [22] has the same target. Kind of series: Inhibition of STK19 in human WM2032 cells expressing NRAS Q61R and wild-type BRAF at 100 nM assessed as H3K9 methylation relative to control. In kind it is cell-based.

In the case of `COc1cc2nc(NC3CC3)nc(NC3CCN(C(C)C)CC3)c2cc1OC.O=C(O)C(F)(F)F`, the result in [1] and in [7] was inactive. Besides, the inhibition entry in [2], in series [5] and in series [22] was “inactive” each time. In addition, the Activity entry in series [3], in [11], in series [15], in series [17] and in series [18] was “Non-Toxic” each time. The inhibition entry in series [4], in series [6], in series [9], in series [10], in series [20] and in series [21] was “Active” in each case. Moreover, the outcome in series [8], in series [12], in series [13], in series [14], in [16] and in series [19] was Active.
